The source of these data is US5089516A, “1-phenyl-3,5-pyrazolidinedione hydroxystyrene compounds which have tyrosine kinase inhibiting activity” (Kanegafuchi Kagaku Kogyo Kabushiki Kaisha, priority 1987, dated 1992).

A word on the inhibition: it is the percentage by which the read-out fell short of the control.

Assay [1] addresses T1, 5-lipoxygenase (Cavia porcellus, UniProt A0A286X958).
T1 construct: The cytosol fraction was used as an enzyme solution; from tissue; host or cells: peritoneal exudate cells of casein-injected Hartley guinea pigs, 105,000×g cytosol
T1 sequence (A0A286X958 1-674): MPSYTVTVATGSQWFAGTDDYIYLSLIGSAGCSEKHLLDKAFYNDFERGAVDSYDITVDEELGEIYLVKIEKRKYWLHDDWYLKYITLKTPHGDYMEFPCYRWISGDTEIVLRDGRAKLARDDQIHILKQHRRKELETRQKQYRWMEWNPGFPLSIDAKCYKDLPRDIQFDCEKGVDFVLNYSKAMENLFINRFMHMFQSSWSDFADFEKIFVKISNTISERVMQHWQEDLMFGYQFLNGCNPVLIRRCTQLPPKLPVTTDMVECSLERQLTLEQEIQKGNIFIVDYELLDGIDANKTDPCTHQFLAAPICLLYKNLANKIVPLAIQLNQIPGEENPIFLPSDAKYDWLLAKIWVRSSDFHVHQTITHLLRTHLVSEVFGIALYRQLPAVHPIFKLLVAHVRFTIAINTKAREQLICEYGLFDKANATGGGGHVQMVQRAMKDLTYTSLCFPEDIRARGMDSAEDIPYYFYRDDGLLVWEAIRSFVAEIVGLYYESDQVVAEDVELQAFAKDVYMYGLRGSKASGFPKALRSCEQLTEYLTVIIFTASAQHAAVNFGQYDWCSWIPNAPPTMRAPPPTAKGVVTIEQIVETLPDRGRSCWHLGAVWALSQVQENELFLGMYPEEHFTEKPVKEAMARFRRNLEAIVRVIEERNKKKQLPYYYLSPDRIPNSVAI
In words: 5-Lipoxygenase inhibiting activity (5-HETE formation, cytosol of peritoneal exudate cells). The format is biochemical, Hartley guinea pigs. The settings on record: read-out: Inhibition rate (5-lipoxygenase); for inhibition at 10 µM: 10 μM in the reaction mixture; for inhibition at 1 µM: 1 μM in the reaction mixture. Put shortly: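 Enzyme source: cytosol (105,000×g supernatant) of casein-elicited guinea pig peritoneal exudate cells, preincubated 5 min at 30 °C with compound (2% ethanol final), 1 mM CaCl2, 1 mM GSH, 2 mM ATP, then 5 min with 20 μM [1-14C]arachidonic acid. 5-HETE separated by TLC, counted by scintillation; % inhibition versus ethanol control.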

For assay [2], the target named is T2, epidermal growth factor receptor-tyrosine kinase complex (Homo sapiens, UniProt P00533).
T2 construct: The membrane preparation was employed in the following measurement without solubilization; endogenous in cells; host or cells: A-431 (ATCC CRL1555), membrane preparation, not solubilized
Put plainly: Tyrosine kinase inhibiting activity (A-431 membrane preparation, EGF-stimulated). The settings on record: read-out: Tyrosine kinase inhibition rate; for inhibition at 1 µM: 1 μM in the reaction mixture; for inhibition at 10 µM: 10 μM in the reaction mixture. The format is biochemical. In short, it runs like this:
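Unsolubilized A-431 membranes (10 μg protein) in 20 mM HEPES pH 7.4 with 1 mM MnCl2 were preincubated with compound (DMSO) 5 min at 0° C, stimulated with 100 ng EGF 15 min, then phosphorylated with [γ-32P]ATP 15 min at 0° C. TCA-precipitated radioactivity on filter counted; inhibition % calculated against no-EGF and no-compound controls.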

Molecules are shown by their SMILES.

T2 sequence (P00533 25-1210, one chain of several): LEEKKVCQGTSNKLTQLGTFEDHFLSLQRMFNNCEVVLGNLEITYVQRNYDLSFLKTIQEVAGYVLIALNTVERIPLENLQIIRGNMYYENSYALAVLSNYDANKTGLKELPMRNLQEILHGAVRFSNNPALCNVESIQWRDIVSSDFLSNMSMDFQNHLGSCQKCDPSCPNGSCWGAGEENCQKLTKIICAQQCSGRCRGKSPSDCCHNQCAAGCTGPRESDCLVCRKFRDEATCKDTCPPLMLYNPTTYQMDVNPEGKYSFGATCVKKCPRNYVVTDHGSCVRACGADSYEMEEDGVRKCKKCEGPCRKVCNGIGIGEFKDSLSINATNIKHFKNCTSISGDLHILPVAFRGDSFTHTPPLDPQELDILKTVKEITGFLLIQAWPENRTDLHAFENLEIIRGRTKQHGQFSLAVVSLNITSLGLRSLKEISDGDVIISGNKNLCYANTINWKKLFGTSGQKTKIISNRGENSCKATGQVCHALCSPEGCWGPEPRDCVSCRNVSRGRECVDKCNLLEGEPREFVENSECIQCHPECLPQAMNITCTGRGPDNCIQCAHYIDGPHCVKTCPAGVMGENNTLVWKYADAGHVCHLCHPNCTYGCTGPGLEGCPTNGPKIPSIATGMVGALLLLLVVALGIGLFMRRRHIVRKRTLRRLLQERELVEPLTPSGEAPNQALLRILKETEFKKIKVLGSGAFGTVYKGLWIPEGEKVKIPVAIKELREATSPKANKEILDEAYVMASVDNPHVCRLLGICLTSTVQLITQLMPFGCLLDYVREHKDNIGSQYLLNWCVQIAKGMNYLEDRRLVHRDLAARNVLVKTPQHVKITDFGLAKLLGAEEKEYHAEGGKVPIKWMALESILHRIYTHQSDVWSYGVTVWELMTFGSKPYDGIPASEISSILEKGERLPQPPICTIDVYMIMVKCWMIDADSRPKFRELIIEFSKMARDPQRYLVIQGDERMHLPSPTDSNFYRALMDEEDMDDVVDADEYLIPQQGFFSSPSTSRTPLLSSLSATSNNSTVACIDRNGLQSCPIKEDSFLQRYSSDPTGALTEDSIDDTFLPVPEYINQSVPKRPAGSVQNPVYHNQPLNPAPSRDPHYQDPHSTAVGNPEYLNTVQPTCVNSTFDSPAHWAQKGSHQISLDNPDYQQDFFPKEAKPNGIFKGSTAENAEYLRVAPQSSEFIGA

For the molecule `CC(C)c1cc(C=C2SC(NCc3ccc(N)cc3)=NC2=O)cc(C(C)C)c1O` [Compound 42], in assay [1], the inhibition at 10 µM was 88%. Besides, the inhibition at 1 µM in assay [2] turned out to be 85%.

In the case of `O=C1Nc2ccccc2C1=Cc1cc(O)c(O)c(CSc2ccccc2)c1` [Compound 11], the inhibition at 1 µM in assay [1] was determined as 87%. Further, the inhibition at 10 µM in assay [2] is 52%.

With `O=C1NN(c2ccccc2)C(=O)C1=Cc1cc(Cc2ccccc2)c(O)c(Cc2ccccc2)c1` [Compound 20], the inhibition at 10 µM in assay [1] is 83%. In addition, the inhibition at 1 µM in assay [2] turned out to be 46%.

In the case of `O=C1NN(c2ccccc2)C(=O)C1=Cc1cc(O)c(O)c(Cc2ccccc2)c1` [Compound 24], the inhibition at 1 µM in assay [1] came out at 48%; in assay [2], 37%.

For `CCCCOc1cc(C=C2SC(=S)NC2=O)cc(Cc2ccccc2)c1O` [Compound 10], the figures for the inhibition at 1 µM in assay [1] and in assay [2] were 23% and 40%, respectively.

For the molecule `CC(C)c1cc(C=C2SC(NCc3ccc(S(N)(=O)=O)cc3)=NC2=O)cc(C(C)C)c1O` [Compound 41], the inhibition at 10 µM in assay [1] was 89%; in assay [2], 70%.

Turning to `O=C1N=C(NCc2cccs2)SC1=Cc1cc(CSc2ccccc2)c(O)c(OCc2ccccc2)c1` [Compound 31], the inhibition at 1 µM in assay [1] was found to be 49%. Also, the inhibition at 10 µM in assay [2] is 41%.

For the molecule `O=C1NC(=S)SC1=Cc1cc(O)c(O)c(CSc2ccccc2)c1` [Compound 7], the inhibition at 1 µM in assay [1] amounted to 88%. Moreover, the inhibition at 10 µM in assay [2] was 59%.

As for `O=C1NC(=S)SC1=Cc1cc(CSc2ccccc2)c(O)c(OCc2ccccc2)c1` [Compound 8], in assay [1], the inhibition at 1 µM was 61%. Further, the inhibition at 10 µM in assay [2] was 69%.

`Cc1ccc(CNC2=NC(=O)C(=Cc3cc(C(C)C)c(O)c(C(C)C)c3)S2)cc1` [Compound 39]: the inhibition at 10 µM in assay [1] is 87%; in assay [2], 43%.

Regarding `CC(C)c1cc(C=C2SC(NCc3ccc(Cl)c(Cl)c3)=NC2=O)cc(C(C)C)c1O` [Compound 37], the figures for the inhibition at 10 µM in assay [1] and in assay [2] were 89% and 83%, respectively.

On to `O=C1NC(=S)SC1=Cc1cc(Cc2ccccc2)c(O)c(Cc2ccccc2)c1` [Compound 2], for which the inhibition at 10 µM in assay [1] turned out to be 78%. Besides, in assay [2], the inhibition at 1 µM turned out to be 20%.

In the case of `CC(C)c1cc(C=C2SC(NCc3ccccc3)=NC2=O)cc(C(C)C)c1O` [Compound 33], the inhibition at 10 µM in assay [1] was found to be 82%; in assay [2], 69%.

Consider `O=C1N=C(NCc2ccccc2)SC1=Cc1cc(Cc2ccccc2)c(O)c(Cc2ccccc2)c1` [Compound 26], for which the inhibition at 1 µM in assay [1] came to 84%. Also, the inhibition at 10 µM in assay [2] is 62%.

As for `CCCCOc1cc(C=C2SC(=S)NC2=O)cc(CSc2ccccc2)c1O` [Compound 9], the inhibition at 1 µM in assay [1] was found to be 91%. Moreover, the inhibition at 10 µM in assay [2] was found to be 50%.

On to `CC(C)c1cc(C=C2SC(NCc3ccc(F)cc3)=NC2=O)cc(C(C)C)c1O` [Compound 35], for which the inhibition at 10 µM in assay [1] was determined as 89%. Moreover, in assay [2], the inhibition at 1 µM stood at 70%.
